Experimental data reported in US12269793B2, “Affinity illudofulvene conjugates” (AF Chemicals, LLC, priority 2019, dated 2025).
Where two headings read alike, the source gives them in different places. Where a SMILES comes first, the peptide text is derived from it. [ ]: non-standard residue; d: D form. The star is where a group is joined. Dolaproine = CO[C@@H]([C@@H]1CCCN1)[C@@H](C)C(=O)O; X4 = CC1=C(C*)C2=C(C)C3(CC3)[C@@](C)(O)C(=O)C2=C1; Dil = CC[C@H](C)[C@H](NC)[C@@H](CC(=O)O)OC; X1 = C[C@@H](N*)[C@@H](O)c1ccccc1; NMeV = CN[C@H](C(=O)O)C(C)C

Legend:
[1] = tested on: 8392B Nontarget Cell Line (hematopoietic); experiment: cells; details: 2 h, read-out: Mean IC50 value, 8392B Nontarget Cell Line, 2 hr exposure, ± SD, N = 3 unless otherwise indicated
[2] = tested on: 8392B Nontarget Cell Line (hematopoietic); experiment: cells; details: 48 h, read-out: Mean IC50 value
[3] = tested on: NCI 60 cell line panel; experiment: NCI DTP 60 cell line screen assay; details: for Activity Value: NCI 60 cell line screen, negative = lyse tumor cells, zero = no growth, positive = slower growth
Description: An ADC is engulfed by a tumor cell, transported to the endosomes (pH<6.0) and then into the lysozomes (pH<4). […] 4). Cancer cells can become resistant to various toxins and drugs through the development of what is termed multi-drug resistance. This process is known to occur through several different mechanisms.

[4] = tested on: MV522 Target Cell Line (lung-derived adenocarcinoma); experiment: cells; details: MV522, 2 h, read-out: Mean IC50 value
[5] = tested on: MV522 Target Cell Line (lung-derived adenocarcinoma); experiment: cells; details: MV522, 48 h, read-out: Mean IC50 value
[6] = tested on: 8392B Nontarget Cell Line (hematopoietic); details: read-out: Mean IC50 value, 2 hr exposure, ± SD, N = 3 unless otherwise indicated
[7] = tested on: 8392B Nontarget Cell Line (hematopoietic); details: read-out: Mean IC50 value, 48 hr exposure, ± SD, N = 3 unless otherwise indicated

In the case of `CC1=C(CCC(O)CO)C2=C(C)C3(CC3)[C@@](C)(O)C(=O)C2=C1` (stereo partly shown) [Analog 119], the IC50 [1] is reported as > 33 µM and the IC50 [2] is reported as > 10 µM.
In the case of `CC[C@H](C)[C@@H]([C@@H](CC(=O)N1CCC[C@H]1[C@H](OC)[C@@H](C)C(=O)N[C@@H](Cc1ccccc1)c1nccs1)OC)N(C)C(=O)[C@@H](NC(=O)[C@H](C(C)C)N(C)C)C(C)C` [Dolstatin-10], the “Mean LD50 cytotoxic” value ([3]; NCI DTP 60 cell line, mean) is reported as >50,000 nM, the “Mean TGI cytostatic” value ([3]; NCI DTP 60 cell line, mean) is reported as 2,680 nM and the GI50 ([3]; read-out: Mean GI50 inhibition, NCI DTP 60 cell line, mean) is reported as 0.017 µM.
For `CC1=C(CCC=NN=CCCC2=C(C)C=C3C(=O)[C@@](C)(O)C4(CC4)C(C)=C32)C2=C(C)C3(CC3)[C@@](C)(O)C(=O)C2=C1` [Analog 120], the IC50 [1] was 19.1 ± 4.6 µM, the IC50 [2] was 0.51 ± 0.11 µM and the IC50 [4] was 2.8 ± 0.9 µM. The IC50 [5] was 0.6 ± 0.1 µM.
In the case of `C=CCCC1=C(C)C=C2C(=O)[C@](C)(O)C3(CC3)C(C)=C21` [Analog 113], the IC50 [1] is reported as > 93 µM, the IC50 [2] is reported as 7.8 ± 1 µM and the IC50 [4] is reported as 85 ± 0.7 µM. It also gave an IC50 [5] of 14.1 ± 3 µM.
For `CC1=C(CSc2nnnn2-c2ccc(O)cc2)C2=C(C)C3(CC3)[C@@](C)(O)C(=O)C2=C1` [Analog 154], the IC50 [6] was > 70 µM.
For `CO[C@@H]1[C@H](O)CC[C@]2(CO2)[C@H]1[C@@]1(C)O[C@@H]1CC=C(C)C` [Fumagillol], the “Mean LD50 cytotoxic” value ([3]; NCI DTP 60 cell line, mean) was >50,000 nM.
For `CC(=O)N[C@@H](CSCC1=C(C)C=C2C(=O)[C@](C)(O)C3(CC3)C(C)=C21)C(=O)N[C@@H](CC(C)C)C(=O)N[C@H](CC(C)C)C(=O)N[C@H](C=O)CC(C)C` [Analog 087] (Ac-C(X4)L[dL]L-aldehyde), the IC50 [1] was > 40 µM, the IC50 [4] was > 40 µM and the IC50 [5] was 24.7 ± 3.9 µM.
With `CC[C@H](C)[C@@H]([C@@H](CC(=O)N1CCC[C@H]1[C@H](OC)[C@@H](C)C(=O)N[C@H](C)[C@@H](O)c1ccccc1)OC)N(C)C(=O)[C@@H](NC(=O)[C@@H](NC)C(C)C)C(C)C` [MMAE, monomethyl auristatin E] (H-[NMeV]V[Dil][Dolaproine]-X1) the “Activity Value” [3] was “+21”, the “MDR Activity” value [3] was “No” and the “MDR Activity” value ([3]; listed as MMA) was “not MDR active”.
For `CC(=O)O[C@@H]1C2=C(C)C3(CC3)[C@@](C)(O)C(=O)C2=C[C@@]1(C)CO` [Analog 371], the “Activity Value” [3] was −18 and the “MDR Activity” value [3] was “Yes”.
`CC(=O)N[C@@H](CSCC1=C(C)C=C2C(=O)[C@](C)(O)C3(CC3)C(C)=C21)C(=O)N[C@@H](Cc1ccccc1)C(=O)NCC(=O)N[C@H](C=O)CC(C)C` [Analog 083] (Ac-C(X4)FGL-aldehyde) was tested, and the IC50 [2] was > 42 µM and the IC50 [5] was 37.2 ± 2.9 µM.
Work on `CC(=O)OCCCC1=C(C)C=C2C(=O)[C@](C)(O)C3(CC3)C(C)=C21` [Analog 094] yielded an IC50 [1] of 9 ± 1.7 µM, an IC50 [2] of 0.11 ± 0.01 µM and an IC50 [4] of 0.8 ± 0.1 µM.
`CC(=O)O[C@@]1(C)C(=O)C2=CC(CO)=CC2=C(C)C12CC2` [Analog 090] was tested, and the IC50 [1] was 1.6 ± 0.2 µM, the IC50 [2] was 3.8 ± 0.3 µM and the IC50 [4] was 2.5 ± 0.4 µM. For the same compound, the IC50 [5] was 2.9 ± 0.4 µM.
With `CC(=O)ON(C(C)=O)c1ccc(C(=O)OC[C@]2(C)C=C3C(=O)[C@](C)(O)C4(CC4)C(C)=C3C2OC(=O)c2ccc(N(OC(C)=O)C(C)=O)cc2)cc1` (stereo partly shown) [Analog 140] the IC50 [7] was > 14 µM.
With `C=C1C[C@H]2C=Nc3cc(OCCCOc4cc5c(cc4OC)C(=O)N4CC(=C)C[C@H]4C=N5)c(OC)cc3C(=O)N2C1` [Pyrrolo-benzodiazepines] the “Mean LD50 cytotoxic” value ([3]; NCI DTP 60 cell line, mean) was >23,000 nM.
In the case of `CC1=C(CCC=NO)C2=C(C)C3(CC3)[C@@](C)(O)C(=O)C2=C1` [Analog 115], the IC50 [2] is reported as 0.63 ± 0.06 µM.
In the case of `CC1=C(C=O)C2=C(C)C3(CC3)[C@@](C)(O)C(=O)C2=C1` [Analog 011], the IC50 [1] is reported as > 100 µM, the IC50 [2] is reported as 40.4 ± 6.7 µM and the IC50 [4] is reported as 4.9 ± 0.9 µM.
In the case of `CC1=C(CO)C2=C(C)C3(CC3)[C@@](C)(O)C(=O)C2=C1` [Analog 002], the “MDR Activity” value [3] is reported as “Yes” and the Cytotoxicity ([3]; ability to actually kill tumor cells versus only inhibiting growth) is reported as “Yes”.
With `CC1=C(CNO)C2=C(C)C3(CC3)[C@@](C)(O)C(=O)C2=C1` [Analog 394] the “Activity Value” [3] was −2 and the “MDR Activity” value [3] was “Yes”.
In the case of `CC1=C(CSc2ccc(O)cc2)C2=C(C)C3(CC3)[C@@](C)(O)C(=O)C2=C1` [Analog 023], the IC50 [1] is reported as > 138 µM, the IC50 [4] is reported as 2.9 ± 1.14 µM and the IC50 [5] is reported as 2.75 ± 0.5 µM.
In the case of `CC(=O)OCC1=C(CO)C=C2C(=O)[C@](C)(OC(C)=O)C3(CC3)C(C)=C21` [Analog 103], the IC50 [1] is reported as 12.1 ± 2 µM, the IC50 [4] is reported as 31.8 ± 4.9 µM and the IC50 [5] is reported as 5.9 ± 0.4 µM.
Compound `CC1=C(CCC=O)C2=C(C)C3(CC3)[C@@](C)(O)C(=O)C2=C1` [Analog 010] has an IC50 [1] of 29.4 ± 1.6 µM and an IC50 [2] of 14.5 ± 1.7 µM.
For `CC1=C(CSc2nccn2C)C2=C(C)C3(CC3)[C@@](C)(O)C(=O)C2=C1` [Analog 096], the IC50 [1] was > 88 µM, the IC50 [2] was > 3 µM and the IC50 [5] was 6.2 ± 0.6 µM.
For `CC1=C(CSc2nc3ccccc3s2)C2=C(C)C3(CC3)[C@@](C)(O)C(=O)C2=C1` [Analog 147], the IC50 [6] was > 76 µM.
`CC1=C(CSC[C@@H](C)C(=O)N2CCC[C@H]2C(=O)O)C2=C(C)C3(CC3)[C@@](C)(O)C(=O)C2=C1` [Analog 098] was tested, and the IC50 [1] was > 65 µM, the IC50 [2] was 11.7 ± 1.8 µM and the IC50 [4] was 18.8 ± 2.5 µM. For the same compound, the IC50 [5] was 4.6 ± 0.25 µM.
